Data as given in patent publication US7294629B2, “Quinazoline derivatives” (Mitsubishi Pharma Corporation, priority 2001, dated 2007).
pIC50: −log10 of the molar value.

target: T1, EGF receptor partially purified by A431 cell line (Homo sapiens, UniProt P00533); assay: EGFR tyrosine kinase inhibitory action (A431 cell membrane fraction, 32P-ATP, Angiotensin II substrate); type: biochemical; conditions: EGF-stimulated, 10 μM ATP, in ice for 30 min
T1 construct: A431 cell membrane fraction, which was used for the assay as an enzyme source of partially purified EGF receptor; endogenous in cells; host or cells: A431 human epidermoid cancer cells (membrane fraction, 100,000 G pellet)
T1 sequence (P00533 25-1210): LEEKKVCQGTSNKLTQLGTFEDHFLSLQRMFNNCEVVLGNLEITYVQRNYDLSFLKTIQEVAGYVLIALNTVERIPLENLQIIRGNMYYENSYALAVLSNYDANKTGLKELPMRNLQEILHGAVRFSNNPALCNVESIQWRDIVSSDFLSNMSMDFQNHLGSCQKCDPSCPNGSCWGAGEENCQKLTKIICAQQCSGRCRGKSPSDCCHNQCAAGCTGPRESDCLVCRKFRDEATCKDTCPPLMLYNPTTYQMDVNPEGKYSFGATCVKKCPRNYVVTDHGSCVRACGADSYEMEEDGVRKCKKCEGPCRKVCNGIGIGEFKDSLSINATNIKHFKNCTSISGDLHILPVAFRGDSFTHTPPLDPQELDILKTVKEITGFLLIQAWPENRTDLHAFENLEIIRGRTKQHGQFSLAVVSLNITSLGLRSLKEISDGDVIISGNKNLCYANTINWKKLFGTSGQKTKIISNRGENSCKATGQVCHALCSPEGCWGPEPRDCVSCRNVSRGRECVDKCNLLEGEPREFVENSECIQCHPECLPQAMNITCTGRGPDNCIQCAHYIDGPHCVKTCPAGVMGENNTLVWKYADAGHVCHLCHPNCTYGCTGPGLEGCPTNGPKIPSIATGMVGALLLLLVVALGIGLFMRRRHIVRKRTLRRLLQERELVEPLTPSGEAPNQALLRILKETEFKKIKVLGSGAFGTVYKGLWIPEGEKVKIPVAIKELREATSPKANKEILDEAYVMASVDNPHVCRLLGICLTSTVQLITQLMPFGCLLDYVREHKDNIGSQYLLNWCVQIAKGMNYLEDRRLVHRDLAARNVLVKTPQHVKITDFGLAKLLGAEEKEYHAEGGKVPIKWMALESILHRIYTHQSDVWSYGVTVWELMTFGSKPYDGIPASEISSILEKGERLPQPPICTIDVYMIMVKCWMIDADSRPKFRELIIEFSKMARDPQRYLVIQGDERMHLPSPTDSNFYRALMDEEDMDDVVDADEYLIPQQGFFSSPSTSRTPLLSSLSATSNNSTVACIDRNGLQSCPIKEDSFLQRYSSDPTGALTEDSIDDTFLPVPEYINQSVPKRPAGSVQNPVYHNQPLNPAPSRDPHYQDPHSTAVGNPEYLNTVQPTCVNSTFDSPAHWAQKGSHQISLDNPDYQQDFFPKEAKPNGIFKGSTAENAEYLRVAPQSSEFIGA
Method: Specific method was as follows.
A431 cells were cultured in Dulbecco's Modified Eagle Medium (DMEM) containing 10% of fetal calf serum (FBS) at 37° C. under 5% carbon dioxide gas, and homogenized in a solution containing 10 mM N-2-hydroxyethylpiperazino-N′-2-ethanesulfonic acid (Hepes) buffer (pH 7.4), 0.25 M sucrose and 0.1 mM EDTA, and separated by centrifugation at 3000 G for 5 min. The supernatant was separated by centrifugation at 100,000 G for 30 min to separate A431 cell membrane fraction, which was used for the assay as an enzyme source of partially purified EGF receptor.
The reaction was carried out in ice for 30 min and 6 μL of 10 mg/mL bovine serum albumin and 25 μL of 20% trichloroacetic acid were added to stop the reaction. The reaction mixture was left in ice as it was for 30 min.
The mixture was centrifuged at 5000 G for 2 min and the supernatant was sampled by 40 μL and adsorbed on P81 phosphocellulose paper. […] This rinsing was repeated 4 times. The paper was taken out, the ^32P count was measured on a liquid scintillation counter and this value was taken as A.
Simultaneously, a reaction without the test substance and a reaction without the test substance and EGF were also measured and the counts thereof were taken as B and C, respectively.
The tyrosine kinase inhibitory rate can be determined from the following formula based on these values. Percent Inhibition (%)=100−{(A−C)/(B−C)}×100

Structure (SMILES)	pIC50
CCOc1cc2ncnc(Nc3ccc(F)c(Cl)c3)c2cc1C#CC(C)(C)N(CC)CCC(=O)OC [1bab]	8.25
C=CC(=O)Nc1cc2c(Nc3ccc(F)c(Cl)c3)ncnc2cc1C#CC(C)(C)N1CCC(N(C)C)CC1 [1aa]	8.77
COc1cc2ncnc(Nc3ccc(F)c(Cl)c3)c2cc1C#CC(C)(C)N1CCN(CC#N)CC1 [1bb]	8.89
CCOc1cc2ncnc(Nc3ccc(F)c(Cl)c3)c2cc1C#CC(C)(C)N1CCN(C(C)=O)CC1 [1baa]	8.55
C=CC(=O)Nc1cc2c(Nc3ccc(F)c(Cl)c3)ncnc2cc1C#CC(C)(C)N1CCOCC1 [1b]	8.89
CCOc1cc2ncnc(Nc3ccc(F)c(Cl)c3)c2cc1C#CC(C)(C)N1CCN(CCC#N)CC1 [1bae]	8.60
C#Cc1cccc(Nc2ncnc3cc(OCC)c(C#CC(C)(C)N4CCN(CC#N)CC4)cc23)c1 [1bai]	8.74
COc1cc2ncnc(Nc3ccc(F)c(Cl)c3)c2cc1C#CC(C)(C)N1CCNCC1 [1bc]	8.80
COc1cccc(Nc2ncnc3cc(OC)c(C#CC(C)(C)N4CCN(C)CC4)cc23)c1 [1bh]	8.36
C=CC(=O)Nc1cc2c(Nc3ccc(F)c(Cl)c3)ncnc2cc1C#CCCN1CCN(C)CC1 [1ac]	> 9.00
COc1cc2ncnc(Nc3ccc(F)c(Cl)c3)c2cc1C#CC(C)(C)N1CCN(CC(C)C)CC1 [1be]	8.10
C#Cc1cccc(Nc2ncnc3cc(OCC)c(C#CC(C)(C)N(C)CCN(C)C)cc23)c1 [1ban]	8.59
CCOc1cc2ncnc(Nc3ccc(F)c(Cl)c3)c2cc1C#CC(C)(C)N1CCN(CCOC)CC1 [1bah]	8.59
CCOc1cc2ncnc(Nc3ccc(F)c(Cl)c3)c2cc1C#CC(CC)(CC)N1CCN(C)CC1 [1bag]	8.29
COc1cc2ncnc(Nc3ccc(F)c(Cl)c3)c2cc1C#CC(C)(C)N1CCN(C)CC1 [1ba]	8.96
COc1cc2ncnc(Nc3ccc(F)c(Cl)c3)c2cc1/C=C/C(C)(C)N1CCN(C)CC1 [1bf]	9.09
CCOc1cc2ncnc(Nc3ccc(F)c(Cl)c3)c2cc1C#CC(C)(C)N1CCN(S(C)(=O)=O)CC1 [1bad]	8.40
C=CC(=O)Nc1cc2c(Nc3ccc(F)c(Cl)c3)ncnc2cc1C#CC(C)(C)N1CCNCC1 [1ap]	8.62
C=CC(=O)Nc1cc2c(Nc3ccc(F)c(Cl)c3)ncnc2cc1C#CC(C)(C)N(C)C1CCN(C)CC1 [1ab]	8.68
C#Cc1cccc(Nc2ncnc3cc(OCC)c(C#CC(C)(C)N4CCOCC4)cc23)c1 [1baj]	8.48
C#Cc1cccc(Nc2ncnc3cc(OCC)c(C#CC(C)(C)N4CCN(C)CC4)cc23)c1 [1bam]	8.48
CCCN1CCN(C(C)(C)C#Cc2cc3c(Nc4ccc(F)c(Cl)c4)ncnc3cc2OC)CC1 [1bd]	8.52
CCOc1cc2ncnc(Nc3ccc(F)c(Cl)c3)c2cc1C#CC(C)(C)N1CCC(OC)CC1 [1baf]	8.48

Next, values leading:

pIC50	Structure (SMILES)
8.59	CCN1CCN(C(C)(C)C#Cc2cc3ncnc(Nc4ccc(F)c(Cl)c4)c3cc2NS(C)(=O)=O)CC1 [1ch]
8.57	CN1CCC(N(C)C(C)(C)C#Cc2cc3ncnc(Nc4ccc(F)c(Cl)c4)c3cc2NS(C)(=O)=O)CC1 [1cj]
8.66	CCOc1cc2ncnc(Nc3ccc(F)c(Cl)c3)c2cc1C#CC(C)(C)N1CCN(CC)CC1 [1bz]
8.54	COc1cc2c(Nc3ccc(F)c(Cl)c3)ncnc2cc1C#CC(C)(C)N1CCN(CC#N)CC1 [1bj]
9.00	COc1cc2c(Nc3ccc(F)c(Cl)c3)ncnc2cc1C#CC(C)(C)N1CCN(C)CC1 [1bi]
8.55	CCOc1cc2ncnc(Nc3ccc(F)c(Cl)c3)c2cc1C#CC(C)(C)N1CCCN(C)CC1 [1bw]
8.66	CCOc1cc2ncnc(Nc3ccc(F)c(Cl)c3)c2cc1C#CC(C)(C)N(C)CCN(C)C [1bo]
8.24	CCOc1cc2ncnc(Nc3ccc(F)c(Cl)c3)c2cc1C#CC(C)(C)N(CC)CC [1br]
8.28	CN1CCN(C2(C#Cc3cc4ncnc(Nc5ccc(F)c(Cl)c5)c4cc3NS(C)(=O)=O)CCCCC2)CC1 [1cm]
8.96	CCOc1cc2ncnc(Nc3ccc(F)c(Cl)c3)c2cc1C#CC(C)(C)N1CCN(CC#N)CC1 [1bs]
8.26	CCN(CCC(=O)OC)C(C)(C)C#Cc1cc2ncnc(Nc3ccc(F)c(Cl)c3)c2cc1NS(C)(=O)=O [1cu]
8.47	CCOc1cc2ncnc(Nc3ccc(F)c(Cl)c3)c2cc1C#CC(C)(C)NCCN1CCOCC1 [1bx]
8.47	CCC(C#Cc1cc2ncnc(Nc3ccc(F)c(Cl)c3)c2cc1NS(C)(=O)=O)(CC)N1CCN(C)CC1 [1cr]
8.41	C=CC(=O)Nc1cc2c(Nc3ccc(F)c(Cl)c3)ncnc2cc1C#CC(C)(C)N1CCN(CC#N)CC1 [1c]
8.55	CCOc1cc2ncnc(Nc3ccc(F)c(Cl)c3)c2cc1C#CC(C)(C)N(C)CCC#N [1bm]
8.68	CCOc1cc2ncnc(Nc3ccc(F)c(Cl)c3)c2cc1C#CC(C)(C)N1CCOCC1 [1bk]
8.60	CC(C)(C#Cc1cc2ncnc(Nc3ccc(F)c(Cl)c3)c2cc1NS(C)(=O)=O)N1CCN(CCC#N)CC1 [1cw]
8.66	CCOc1cc2ncnc(Nc3ccc(F)c(Cl)c3)c2cc1C#CC(C)(C)N(C)CCOC [1bl]
8.82	CCOc1cc2ncnc(Nc3ccc(F)c(Cl)c3)c2cc1C#CC(C)(C)N1CCC(O)CC1 [1bv]
8.11	CC(C)(C#Cc1cc2ncnc(Nc3ccc(F)c(Cl)c3)c2cc1NS(C)(=O)=O)N1CCN(CC#N)CC1 [1ca]
8.74	COCCN1CCN(C(C)(C)C#Cc2cc3ncnc(Nc4ccc(F)c(Cl)c4)c3cc2NS(C)(=O)=O)CC1 [1cv]
8.46	CCOc1cc2ncnc(Nc3ccc(F)c(Cl)c3)c2cc1C#CC(C)(C)N1CCCCC1 [1bn]
8.55	CC(C)(C#Cc1cc2ncnc(Nc3ccc(F)c(Cl)c3)c2cc1NS(C)(=O)=O)N1CCCC1 [1cx]
8.30	CCOc1cc2ncnc(Nc3ccc(F)c(Cl)c3)c2cc1C#CC1(N2CCN(C)CC2)CCCCC1 [1bt]
8.49	CCOCCN(CCOCC)C(C)(C)C#Cc1cc2c(Nc3ccc(F)c(Cl)c3)ncnc2cc1OCC [1bu]
8.68	CN1CCN(C(C)(C)C#Cc2cc3ncnc(Nc4ccc(F)c(Cl)c4)c3cc2NS(C)(=O)=O)CC1 [1cg]
8.68	CCOc1cc2ncnc(Nc3ccc(F)c(Cl)c3)c2cc1C#CC(C)(C)N1CCN(C)CC1 [1bp]

target: T2, mutated c-erbB2 (HER2) constitutively activated, in transformed NIH3T3 cells (A4 cell) (Homo sapiens, UniProt P04626, V659E); assay: HER2 tyrosine kinase inhibitory action (phosphotyrosine Western blotting in A4 cells); type: cell-based; conditions: 0.1 μM, 2 hrs, signal without compound = 100%, read-out: % of control at 0.1 μM (phosphorylation signal)
T2 construct: expressed in transfected cells; host or cells: NIH3T3 mouse fibroblast cell line (A4 cell)
T2 sequence (P04626 23-1255 V659E): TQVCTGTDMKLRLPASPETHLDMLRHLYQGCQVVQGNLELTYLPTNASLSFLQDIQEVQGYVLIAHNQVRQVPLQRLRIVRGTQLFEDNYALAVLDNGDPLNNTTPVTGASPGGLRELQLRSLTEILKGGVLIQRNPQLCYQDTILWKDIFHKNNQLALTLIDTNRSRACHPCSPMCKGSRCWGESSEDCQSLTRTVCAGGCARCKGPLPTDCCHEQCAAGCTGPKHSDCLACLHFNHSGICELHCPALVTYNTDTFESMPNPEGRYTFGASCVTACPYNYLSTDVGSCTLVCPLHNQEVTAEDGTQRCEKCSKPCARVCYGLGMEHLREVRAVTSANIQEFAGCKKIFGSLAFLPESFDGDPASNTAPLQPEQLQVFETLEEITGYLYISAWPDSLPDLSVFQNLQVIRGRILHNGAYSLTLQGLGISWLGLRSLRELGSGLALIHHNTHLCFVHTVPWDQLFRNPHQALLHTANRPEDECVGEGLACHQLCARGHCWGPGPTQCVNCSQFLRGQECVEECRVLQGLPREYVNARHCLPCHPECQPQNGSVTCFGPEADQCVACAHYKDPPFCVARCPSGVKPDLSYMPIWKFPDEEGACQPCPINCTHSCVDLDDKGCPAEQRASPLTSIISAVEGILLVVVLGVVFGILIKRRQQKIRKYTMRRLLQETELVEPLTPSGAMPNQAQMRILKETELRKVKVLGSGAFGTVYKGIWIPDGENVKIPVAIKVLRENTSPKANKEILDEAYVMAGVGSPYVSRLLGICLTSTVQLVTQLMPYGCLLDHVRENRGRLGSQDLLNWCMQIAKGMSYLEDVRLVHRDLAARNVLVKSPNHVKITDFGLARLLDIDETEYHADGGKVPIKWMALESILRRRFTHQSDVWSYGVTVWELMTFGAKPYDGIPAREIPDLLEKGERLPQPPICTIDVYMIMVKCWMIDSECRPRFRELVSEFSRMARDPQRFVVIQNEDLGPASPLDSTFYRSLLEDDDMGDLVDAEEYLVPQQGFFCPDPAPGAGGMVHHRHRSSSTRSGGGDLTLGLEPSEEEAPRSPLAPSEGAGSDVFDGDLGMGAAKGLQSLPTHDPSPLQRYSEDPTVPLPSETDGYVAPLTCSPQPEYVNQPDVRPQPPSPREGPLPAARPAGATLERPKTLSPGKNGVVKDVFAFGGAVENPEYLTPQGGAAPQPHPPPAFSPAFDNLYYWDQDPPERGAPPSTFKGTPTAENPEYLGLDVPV
Method: (2) HER2 Tyrosine Kinase Inhibitory Action (Method)
As the cells, NIH3T3 mouse fibroblast cell line (provided by Institute of Development, Aging and Cancer, Tohoku University Cell Resource Center for Biomedical Research) transformed with mutated c-erbB2 constitutively activated by substituting valine at position 659 for glutamic acid was used. In the following, the cell is referred to as A4 cell. This cell line was cultured in DMEM/F12 mixed medium (hereinafter a complete medium) supplemented with 10% FBS in a plastic dish at 37° C., 5% CO2, 95% air.
The A4 cells suspended in a complete medium were seeded in a 12-well plate at 3×10^5/well, and confluent cells were cultured with the compound at 37° C. for 2 hrs. The cells were washed once with PBS, re-suspended in a lysis buffer (60 mM Tris (pH 6.8), 2% SDS, 10% glycerol, 5% beta-mercaptoethanol, 0.001% bromophenol blue), treated by ultrasonication and applied to Western blotting as a whole cell lysate.
The whole cell lysate (protein amount 25 μg) was applied to 7.5% SDS-polyacrylamide electrophoresis and transferred to PVDF membrane. The membrane was blocked and incubated with antiphosphotyrosine mouse monoclonal antibody in Tris buffer containing 0.1% Tween 20 and then treated with HRP-labeled antimouse second antibody. The membrane was developed with a chemiluminescent reagent. The chemiluminescence was taken with a lumino CCD camera and recorded electronically.

remaining activity at 0.1 µM	Structure (SMILES)
9%	C=CC(=O)Nc1cc2c(Nc3ccc(F)c(Cl)c3)ncnc2cc1C#CCCN1CCN(C)CC1 [1ac]
74%	C=CC(=O)Nc1cc2c(Nc3ccc(F)c(Cl)c3)ncnc2cc1C#CC(C)(C)N1CCNCC1 [1ap]

same assay, conditions: 1 μM, 2 hrs, signal without compound = 100%, read-out: % of control at 1 μM (phosphorylation signal)

remaining activity at 1 µM	Structure (SMILES)
3%	C=CC(=O)Nc1cc2c(Nc3ccc(F)c(Cl)c3)ncnc2cc1C#CCCN1CCN(C)CC1 [1ac]
24%	C=CC(=O)Nc1cc2c(Nc3ccc(F)c(Cl)c3)ncnc2cc1C#CC(C)(C)N1CCNCC1 [1ap]

test system: A431 tumor; assay: In vivo antitumor effect on A431 tumor in nude mice; parameters: species or system Balb/c female nude mice; conditions: 1 mg/kg orally once a day for 14 days
Method: (4) In vivo Antitumor Effect
Human epidermoid cancer cell A431 (5×10^6/100 μl) suspended in PBS was subcutaneously implanted on the back of Balb/c female nude mice (Balb/cAJcl-nu mouse, Clea Japan, Inc., 5-week-old when purchased) and when the average volume of the implanted tumor reached approximately about 100 mm^3 in about 7 days, the mice were allocated (4 per group) to make the average tumor volume the same for each group. The tumor volume was obtained by measuring the long diameter and the short diameter with a caliper and according to: [(short diameter)^2×long diameter/2]=tumor volume [mm^3]. A pharmaceutical agent was forcibly administered orally once a day for 14 consecutive days from the day of the allocation, and the drug was not given to the mice of the control group. The relative tumor growth rate, with the tumor volume of the day of start of the administration as 1, was calculated for the control group and the treatment group. Antitumor effect (%) of control=(relative tumor growth rate of treatment group on the last day −1)/(relative tumor growth rate of control group on the last day −1)×100

Structure (SMILES)	% of control (antitumor effect)
C=CC(=O)Nc1cc2c(Nc3ccc(F)c(Cl)c3)ncnc2cc1C#CC(C)(C)N1CCN(C)CC1 [compound 1a.2TsOH, 1a.ditosylate]	41.0%

same assay, conditions: 1 mg/kg orally once a day for 14 days; volume at start = 1

Structure (SMILES)	relative tumor growth rate
C=CC(=O)Nc1cc2c(Nc3ccc(F)c(Cl)c3)ncnc2cc1C#CC(C)(C)N1CCN(C)CC1 [compound 1a.2TsOH, 1a.ditosylate]	2.95

same assay, conditions: A431 tumor, oral, 14 days

Structure (SMILES)	antitumor effect (in words)
C=CC(=O)Nc1cc2c(Nc3ccc(F)c(Cl)c3)ncnc2cc1C#CC(C)(C)N1CCN(C)CC1 [compound 1a.2TsOH, 1a.ditosylate]	dose-dependent antitumor effect
